Holding throughout (assay): NCI tumour cell line growth inhibition, 48 h
For experiment [1], the system named is DMS 114 small cell lung.
Experiment [2] concerns DMS 273 small cell lung.
Experiment [3] has as its system LXFL 529 NSCLC.
For experiment [4], the system named is M19-MEL melanoma.
The test system of experiment [5] is SNB-78 CNS.
For experiment [6], the system named is KM20L2 colon.
Experiment [7] relates to MDA-N.
Experiment [8] has as its system RXF-631 renal.
The test system of experiment [9] is XF 498 CNS.
Experiment [10] has as its system SN12K1 renal.

Several values for one entry are separate records, joined by “and”; a condition that tells them apart may be missing. Equal values may be shown once.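 Tested at 5 concentrations; 48 h exposure; 96-well plates; endpoints linearly interpolated, else capped at highest concentration. GI50 is the concentration that inhibits growth by half. Definition used: TGI = concentration required for complete inhibition of growth.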

Experimental findings from PubChem BioAssay (NCI) are described below.

As to `FC(F)(F)c1cccc(C2SCc3nc4ccccc4n32)c1` (configuration not stated), the TGI in experiment [1], in experiment [2], in [3], in [4] and in [5] was greater than 100 µM throughout.

Take `O=C(O)CCSC(=S)Nc1ccc([N+](=O)[O-])cc1`: the TGI in [1] is greater than 100 µM; in experiment [2], greater than 100 µM; in [6] it was greater than 100 µM; in [3] it was greater than 100 µM; in [7] it was 58.4 µM; in experiment [5], greater than 100 µM.

On to `Cn1c(=N)n[n+]([O-])c2ccccc21`, for which, in [7], the TGI worked out at 3.66 µM.

Turning to `O=S(=O)(CCCCl)SCCCCl`, in experiment [7], the TGI was greater than 76.2 µM.

As for `Cc1ccc(NC(=O)c2cc3ccccc3cc2O)c(C)c1.Cc1ccc(NC(=O)c2cc3ccccc3cc2[O-])c(C)c1.[Ni+2]`, in experiment [7], the GI50 was 3.44 µM and the TGI was 17.3 µM.

For the molecule `O=C(O)[C@@H](NS(=O)(=O)c1ccc([N+](=O)[O-])cc1)c1ccccc1`, the TGI in [2], in experiment [6], in experiment [3], in [4], in [8] and in experiment [9] was greater than 100 µM in each case.

As to `CC(=O)[O][Bi]([c]1ccccc1)[c]1ccccc1`, in [7], the GI50 is 7.57 µM and the TGI is 20.3 µM.

With `CCOC(=O)NC1CC2CCC1(OC)C=C2C` (configuration not stated), the TGI in [1], in experiment [2], in experiment [6], in experiment [3], in experiment [4] and in experiment [5] was greater than 100 µM each time. The molecule also returned a TGI in experiment [9] greater than 100 µM.

Take `FC(F)(F)c1nc(-c2ccccc2)oc1Sc1oc(-c2ccccc2)nc1C(F)(F)F`: the TGI in experiment [1], in experiment [2], in experiment [6], in experiment [3], in experiment [4] and in [5] was greater than 100 µM in each case. In experiment [9], this molecule yielded a TGI greater than 100 µM.

Turning to `CCCCCCCCCCCCCCCCCC[N+](C)(C)Cc1ccc(C[N+](C)(C)CCCCCCCCCCCCCCCCCC)cc1`, the TGI in [1] was 34.1 µM; in experiment [2], 45.9 µM; in experiment [6], 92.7 µM; in experiment [3], 12.8 µM; in experiment [4], 59.8 µM; in experiment [8], 57.1 µM. This molecule also came in with a TGI in experiment [5] of 47.1 µM.

As to `C=C[C@H]1C=Cc2c(OC)cccc2[C@@H]1COP1(=S)NC(C)C(c2ccccc2)O1` (some centres not stated), the TGI in experiment [1], in experiment [2], in experiment [6], in [3], in experiment [4] and in [5] was greater than 100 µM throughout. Also, the TGI in experiment [9] was greater than 100 µM.

Turning to `Cc1ccccc1NC(=O)c1ccc([N+](=O)[O-])cc1`, the TGI in experiment [1], in experiment [2], in [6], in experiment [3], in [4] and in [5] was greater than 100 µM throughout. The molecule also displayed a TGI in experiment [9] greater than 100 µM.

On to `c1ccc2c(c1)[nH]c1c2ncc2[nH]c3ccccc3c21`, for which the TGI is 6.69 µM in experiment [1]; 9.39 µM in experiment [2]; 12.5 µM in experiment [6]; 13.2 µM in experiment [3]; 15.8 µM in experiment [4]; 5.05 µM in [8]. Besides, the TGI came out at 27.2 µM in experiment [5] and 3.3 µM in experiment [9].

For `CCCCCCNCCCNc1c2ccccc2nc2cccc([N+](=O)[O-])c12`, the TGI in experiment [7] was 0.0252 µM and 0.103 µM.

With `Cc1c(CC/C(=N\Nc2ccc([N+](=O)[O-])cc2[N+](=O)[O-])c2ccccc2)c2ccccc2n1C`, the TGI in [1], in experiment [2], in experiment [6], in [3], in experiment [4] and in experiment [8] was greater than 100 µM each time. For the same molecule, the TGI in experiment [5] and in [9] was greater than 100 µM each time.

For `CCCCCC/C=C1\CCC(CN(C)C)C1=O` (configuration not stated), the TGI in experiment [1] was 8.99 µM; in experiment [2] it was 11.4 µM; in experiment [6] it was 23.3 µM; in [3], 3.8 µM; in experiment [4], 7.25 µM; in [7], 17.1 µM. The values for the TGI in [10] and in experiment [9] were 4.35 µM and 7.49 µM, respectively.

In the case of `c1ccc2c(CNCCCCCCCCCCCCNCc3cccc4ccccc34)cccc2c1`, the TGI in experiment [2] was greater than 100 µM; in [6], 3.37 µM; in [3], 3.23 µM; in experiment [4] it was 3.22 µM; in experiment [5], 3.41 µM; in [9], 3.11 µM.

For `COC1CC(OC)C(O)C(CO)O1` (configuration not stated), the TGI in [6], in [3], in experiment [4], in experiment [5] and in [9] was greater than 100 µM in each case.

Consider `COC(=O)Cc1cc(=O)n2c([nH]c3ccccc32)c1C#N`, for which the TGI in experiment [1], in [2], in experiment [6], in [4], in [5] and in experiment [9] was greater than 100 µM throughout.

Take `Nc1nc(=Nc2ccccc2)ss1`: the TGI in [1], in experiment [2], in experiment [6], in [3], in experiment [4] and in experiment [8] was greater than 100 µM in each case. The TGI in experiment [5] and in experiment [9] was greater than 100 µM throughout.

For `COC1=C(OC)[C@]2(OC)c3c(O)c(OC)c4c(c3O[C@@]23O[C@@H](c2ccccc2)CC=C3C1=O)[C@@H](O)C[C@H](c1ccccc1)O4`, in experiment [7], the GI50 was 0.196 µM and the TGI came out at 0.424 µM.

Turning to `COC(=O)C1=C(C)N(NC(N)=O)C(C)(O)C12CCOC2=O` (configuration not stated), the TGI in [1], in experiment [2], in [6], in [3], in experiment [4] and in experiment [5] was greater than 100 µM in each case. This molecule yielded a TGI in experiment [9] greater than 100 µM.
